According to patent publication US20220009920A1 (GB005, Inc., priority 2020, published 2022):

How the values were obtained:
Test in all cases: Large panel kinase profiling
Type in all cases: biochemical
Conditions in all cases: 1 μM test article, 1 mM ATP
[1] = target: T1, GRK1 (Homo sapiens, UniProt Q15835)
T1 construct: AssayQuant Technologies, Inc. (service provider)
T1 sequence (Q15835 1-563): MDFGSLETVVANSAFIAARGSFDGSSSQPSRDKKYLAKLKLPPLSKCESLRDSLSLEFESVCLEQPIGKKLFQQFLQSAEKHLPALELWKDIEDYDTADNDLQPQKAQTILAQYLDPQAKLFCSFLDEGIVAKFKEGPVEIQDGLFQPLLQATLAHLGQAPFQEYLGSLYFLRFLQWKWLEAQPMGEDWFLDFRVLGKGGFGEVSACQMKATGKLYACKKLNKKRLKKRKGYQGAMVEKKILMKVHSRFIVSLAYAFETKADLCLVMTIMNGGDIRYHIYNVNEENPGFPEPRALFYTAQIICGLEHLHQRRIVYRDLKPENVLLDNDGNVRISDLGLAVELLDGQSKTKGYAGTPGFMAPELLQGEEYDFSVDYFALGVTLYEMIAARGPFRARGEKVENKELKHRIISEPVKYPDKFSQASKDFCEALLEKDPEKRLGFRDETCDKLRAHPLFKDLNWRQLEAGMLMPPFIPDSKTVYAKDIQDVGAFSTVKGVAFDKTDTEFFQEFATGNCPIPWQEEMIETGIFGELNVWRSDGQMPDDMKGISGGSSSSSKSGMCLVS
Procedure, shortened: (§1)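 Continuous-read kinase assay: chelation-sensor peptide, 1 mM ATP, compound at 1 μM. Plates kept at 30° C.; fluorescence sampled at 1-min intervals (360/485 nm).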

[2] = target: T2, MAP3K3 (Homo sapiens, UniProt Q99759)
T2 construct: AssayQuant Technologies, Inc. (service provider)
T2 sequence (Q99759 1-626): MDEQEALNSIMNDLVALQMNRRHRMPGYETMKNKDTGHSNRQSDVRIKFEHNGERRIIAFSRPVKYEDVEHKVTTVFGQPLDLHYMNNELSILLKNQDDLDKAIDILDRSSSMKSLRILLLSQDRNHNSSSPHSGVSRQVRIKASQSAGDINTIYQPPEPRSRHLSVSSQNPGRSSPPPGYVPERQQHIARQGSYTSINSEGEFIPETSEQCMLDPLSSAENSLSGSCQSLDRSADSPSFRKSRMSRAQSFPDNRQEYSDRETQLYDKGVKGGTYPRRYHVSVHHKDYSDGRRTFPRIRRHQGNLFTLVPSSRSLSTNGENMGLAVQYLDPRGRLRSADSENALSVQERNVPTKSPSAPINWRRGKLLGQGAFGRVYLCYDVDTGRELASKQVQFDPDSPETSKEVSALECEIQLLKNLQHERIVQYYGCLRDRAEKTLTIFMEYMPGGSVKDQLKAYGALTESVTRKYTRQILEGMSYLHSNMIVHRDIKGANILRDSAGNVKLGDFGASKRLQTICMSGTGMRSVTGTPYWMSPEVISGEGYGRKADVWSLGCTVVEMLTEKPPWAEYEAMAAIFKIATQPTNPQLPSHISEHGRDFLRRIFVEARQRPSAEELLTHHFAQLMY
Procedure, shortened: as §1

[3] = target: T3, NEK4 (Homo sapiens, UniProt P51957)
T3 construct: AssayQuant Technologies, Inc. (assay service)
Procedure, shortened: as §1

[4] = target: T4, HIPK1 (Homo sapiens, UniProt Q86Z02)
T4 construct: AssayQuant Technologies, Inc. (service provider)
Procedure, shortened: as §1

[5] = target: LIMK1 (Homo sapiens, UniProt P53667)
Procedure, shortened: as §1

[6] = target: T5, MAPK3/ERK1 (Homo sapiens, UniProt P27361)
T5 construct: AssayQuant Technologies, Inc. (service provider)
Procedure, shortened: as §1

[7] = target: T6, MAPK15/ERK7 (Homo sapiens, UniProt Q8TD08)
T6 construct: AssayQuant Technologies, Inc. (service provider)
T6 sequence (Q8TD08 1-544): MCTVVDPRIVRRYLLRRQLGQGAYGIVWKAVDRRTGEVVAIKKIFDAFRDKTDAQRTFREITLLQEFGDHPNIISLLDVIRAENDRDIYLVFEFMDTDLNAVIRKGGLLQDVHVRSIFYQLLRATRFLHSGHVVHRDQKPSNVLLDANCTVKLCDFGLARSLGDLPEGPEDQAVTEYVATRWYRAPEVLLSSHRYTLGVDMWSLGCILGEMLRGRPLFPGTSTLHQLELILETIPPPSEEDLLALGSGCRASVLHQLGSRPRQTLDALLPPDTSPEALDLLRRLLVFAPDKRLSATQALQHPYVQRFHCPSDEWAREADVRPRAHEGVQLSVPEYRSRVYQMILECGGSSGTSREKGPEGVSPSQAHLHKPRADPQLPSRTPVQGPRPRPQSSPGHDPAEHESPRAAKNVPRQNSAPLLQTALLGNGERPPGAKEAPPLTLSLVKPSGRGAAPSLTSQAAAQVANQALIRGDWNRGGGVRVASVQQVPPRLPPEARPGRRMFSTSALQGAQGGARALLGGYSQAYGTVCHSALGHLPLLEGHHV
Procedure, shortened: as §1

[8] = target: RPS6KA1/RSK1 (Homo sapiens, UniProt Q15418)
Procedure, shortened: as §1

[9] = target: T7, HIPK2 (Homo sapiens, UniProt Q9H2X6)
T7 construct: AssayQuant Technologies, Inc. (service provider)
Procedure, shortened: as §1

[10] = target: PRKACA (Homo sapiens, UniProt P17612)
Procedure, shortened: as §1

[11] = target: PLK1 (Homo sapiens, UniProt P53350)
Procedure, shortened: as §1

[12] = target: T8, SRMS (Homo sapiens, UniProt Q9H3Y6)
T8 construct: AssayQuant Technologies, Inc. (contract assay)
Procedure, shortened: as §1

T8 sequence (Q9H3Y6 whole entry, species assumed): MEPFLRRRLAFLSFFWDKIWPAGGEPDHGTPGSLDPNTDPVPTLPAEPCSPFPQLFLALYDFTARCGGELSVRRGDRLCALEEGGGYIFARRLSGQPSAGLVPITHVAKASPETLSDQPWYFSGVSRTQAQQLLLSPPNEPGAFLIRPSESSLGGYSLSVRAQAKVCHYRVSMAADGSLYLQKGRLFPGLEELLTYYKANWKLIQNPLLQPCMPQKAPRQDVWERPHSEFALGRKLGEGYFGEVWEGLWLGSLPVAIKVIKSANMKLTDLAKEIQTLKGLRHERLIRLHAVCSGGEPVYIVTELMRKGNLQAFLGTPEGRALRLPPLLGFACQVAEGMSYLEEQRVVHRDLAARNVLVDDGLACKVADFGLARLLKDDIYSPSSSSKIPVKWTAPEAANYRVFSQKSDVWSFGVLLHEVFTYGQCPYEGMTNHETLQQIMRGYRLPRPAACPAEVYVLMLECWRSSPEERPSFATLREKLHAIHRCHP
T3 sequence (P51957 whole entry, species assumed): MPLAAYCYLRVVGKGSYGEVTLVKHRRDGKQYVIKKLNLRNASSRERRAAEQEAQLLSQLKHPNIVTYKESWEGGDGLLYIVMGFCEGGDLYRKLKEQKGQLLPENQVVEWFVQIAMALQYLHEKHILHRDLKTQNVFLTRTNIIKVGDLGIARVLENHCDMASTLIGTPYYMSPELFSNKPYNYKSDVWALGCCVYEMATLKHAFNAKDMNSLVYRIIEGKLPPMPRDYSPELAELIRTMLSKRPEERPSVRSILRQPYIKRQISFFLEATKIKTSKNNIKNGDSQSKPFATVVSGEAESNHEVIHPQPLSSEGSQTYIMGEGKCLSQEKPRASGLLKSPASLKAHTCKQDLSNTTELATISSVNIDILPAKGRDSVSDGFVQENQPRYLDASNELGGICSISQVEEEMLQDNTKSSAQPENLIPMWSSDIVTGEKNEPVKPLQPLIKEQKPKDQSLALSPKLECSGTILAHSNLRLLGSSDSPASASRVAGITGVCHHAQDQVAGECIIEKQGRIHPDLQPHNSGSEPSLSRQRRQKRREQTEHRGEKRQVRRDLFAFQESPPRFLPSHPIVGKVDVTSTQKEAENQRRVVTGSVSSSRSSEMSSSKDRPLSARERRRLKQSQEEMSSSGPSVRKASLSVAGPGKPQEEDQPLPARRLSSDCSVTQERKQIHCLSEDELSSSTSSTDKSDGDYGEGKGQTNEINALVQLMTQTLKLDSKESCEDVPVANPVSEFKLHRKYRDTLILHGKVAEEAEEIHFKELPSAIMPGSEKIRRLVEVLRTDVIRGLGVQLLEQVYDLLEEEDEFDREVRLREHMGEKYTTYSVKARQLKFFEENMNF
T7 sequence (Q9H2X6 whole entry, species assumed): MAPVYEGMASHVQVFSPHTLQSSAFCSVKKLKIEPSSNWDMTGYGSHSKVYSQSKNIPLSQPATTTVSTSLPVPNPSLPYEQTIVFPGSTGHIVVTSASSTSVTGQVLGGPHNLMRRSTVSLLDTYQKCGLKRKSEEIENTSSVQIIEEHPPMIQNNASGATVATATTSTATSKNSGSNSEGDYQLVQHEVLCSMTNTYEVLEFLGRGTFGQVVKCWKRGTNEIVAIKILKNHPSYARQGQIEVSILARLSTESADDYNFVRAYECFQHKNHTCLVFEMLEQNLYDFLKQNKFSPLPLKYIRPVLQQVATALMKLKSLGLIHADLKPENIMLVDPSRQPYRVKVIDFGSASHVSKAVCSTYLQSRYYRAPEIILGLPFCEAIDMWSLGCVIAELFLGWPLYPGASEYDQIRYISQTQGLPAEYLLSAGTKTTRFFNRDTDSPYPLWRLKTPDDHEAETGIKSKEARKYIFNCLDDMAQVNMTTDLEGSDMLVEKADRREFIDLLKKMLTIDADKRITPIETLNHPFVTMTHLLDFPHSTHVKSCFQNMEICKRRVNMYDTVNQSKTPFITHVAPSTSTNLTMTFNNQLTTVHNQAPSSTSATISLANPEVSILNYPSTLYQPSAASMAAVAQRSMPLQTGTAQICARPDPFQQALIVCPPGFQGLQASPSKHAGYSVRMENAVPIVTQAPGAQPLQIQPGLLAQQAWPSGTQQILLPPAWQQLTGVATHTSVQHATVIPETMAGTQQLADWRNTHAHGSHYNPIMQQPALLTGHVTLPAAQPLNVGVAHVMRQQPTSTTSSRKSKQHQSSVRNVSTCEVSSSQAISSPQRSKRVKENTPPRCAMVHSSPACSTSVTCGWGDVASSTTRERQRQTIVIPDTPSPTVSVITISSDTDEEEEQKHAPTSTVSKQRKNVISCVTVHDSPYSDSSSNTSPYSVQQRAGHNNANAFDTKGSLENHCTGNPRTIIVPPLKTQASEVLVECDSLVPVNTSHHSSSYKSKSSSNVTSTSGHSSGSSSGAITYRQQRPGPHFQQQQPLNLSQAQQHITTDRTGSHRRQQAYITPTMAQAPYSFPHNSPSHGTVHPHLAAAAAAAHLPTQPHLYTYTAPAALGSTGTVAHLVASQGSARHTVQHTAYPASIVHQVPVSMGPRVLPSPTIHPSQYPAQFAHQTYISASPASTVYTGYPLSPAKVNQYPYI
Sequence of PLK1 (P53350 whole entry, species assumed): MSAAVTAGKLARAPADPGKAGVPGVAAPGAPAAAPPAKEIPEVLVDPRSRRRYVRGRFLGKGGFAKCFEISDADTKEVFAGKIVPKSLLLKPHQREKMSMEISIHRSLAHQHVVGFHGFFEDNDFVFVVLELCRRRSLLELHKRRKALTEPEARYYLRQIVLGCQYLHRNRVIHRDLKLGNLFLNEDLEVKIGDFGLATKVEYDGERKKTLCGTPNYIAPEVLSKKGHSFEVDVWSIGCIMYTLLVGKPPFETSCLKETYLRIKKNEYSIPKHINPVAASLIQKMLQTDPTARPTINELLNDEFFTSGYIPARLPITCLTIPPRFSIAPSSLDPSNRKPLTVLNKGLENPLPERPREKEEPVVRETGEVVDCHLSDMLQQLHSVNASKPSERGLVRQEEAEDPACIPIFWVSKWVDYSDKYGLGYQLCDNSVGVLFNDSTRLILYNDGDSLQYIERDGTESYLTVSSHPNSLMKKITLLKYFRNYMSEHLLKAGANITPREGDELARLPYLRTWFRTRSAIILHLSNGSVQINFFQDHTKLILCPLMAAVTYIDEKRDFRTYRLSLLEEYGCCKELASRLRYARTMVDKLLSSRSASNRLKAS
Sequence of LIMK1 (P53667 whole entry, species assumed): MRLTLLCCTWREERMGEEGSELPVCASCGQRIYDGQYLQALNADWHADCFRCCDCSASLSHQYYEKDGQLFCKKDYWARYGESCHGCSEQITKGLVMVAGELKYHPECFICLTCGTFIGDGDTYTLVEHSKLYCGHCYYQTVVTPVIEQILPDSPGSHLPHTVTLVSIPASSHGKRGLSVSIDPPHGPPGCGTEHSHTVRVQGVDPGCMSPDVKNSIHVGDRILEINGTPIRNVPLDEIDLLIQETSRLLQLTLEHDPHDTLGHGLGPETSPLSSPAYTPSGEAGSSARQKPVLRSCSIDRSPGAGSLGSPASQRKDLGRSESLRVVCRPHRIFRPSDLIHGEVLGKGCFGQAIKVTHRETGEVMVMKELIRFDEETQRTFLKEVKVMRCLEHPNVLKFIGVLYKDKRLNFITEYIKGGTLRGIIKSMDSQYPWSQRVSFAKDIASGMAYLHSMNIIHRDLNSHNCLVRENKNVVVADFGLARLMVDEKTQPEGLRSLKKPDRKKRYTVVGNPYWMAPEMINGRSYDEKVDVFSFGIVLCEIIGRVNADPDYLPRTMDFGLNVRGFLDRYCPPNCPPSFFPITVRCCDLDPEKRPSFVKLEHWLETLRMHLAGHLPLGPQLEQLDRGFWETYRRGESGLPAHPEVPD
T4 sequence (Q86Z02 whole entry, species assumed): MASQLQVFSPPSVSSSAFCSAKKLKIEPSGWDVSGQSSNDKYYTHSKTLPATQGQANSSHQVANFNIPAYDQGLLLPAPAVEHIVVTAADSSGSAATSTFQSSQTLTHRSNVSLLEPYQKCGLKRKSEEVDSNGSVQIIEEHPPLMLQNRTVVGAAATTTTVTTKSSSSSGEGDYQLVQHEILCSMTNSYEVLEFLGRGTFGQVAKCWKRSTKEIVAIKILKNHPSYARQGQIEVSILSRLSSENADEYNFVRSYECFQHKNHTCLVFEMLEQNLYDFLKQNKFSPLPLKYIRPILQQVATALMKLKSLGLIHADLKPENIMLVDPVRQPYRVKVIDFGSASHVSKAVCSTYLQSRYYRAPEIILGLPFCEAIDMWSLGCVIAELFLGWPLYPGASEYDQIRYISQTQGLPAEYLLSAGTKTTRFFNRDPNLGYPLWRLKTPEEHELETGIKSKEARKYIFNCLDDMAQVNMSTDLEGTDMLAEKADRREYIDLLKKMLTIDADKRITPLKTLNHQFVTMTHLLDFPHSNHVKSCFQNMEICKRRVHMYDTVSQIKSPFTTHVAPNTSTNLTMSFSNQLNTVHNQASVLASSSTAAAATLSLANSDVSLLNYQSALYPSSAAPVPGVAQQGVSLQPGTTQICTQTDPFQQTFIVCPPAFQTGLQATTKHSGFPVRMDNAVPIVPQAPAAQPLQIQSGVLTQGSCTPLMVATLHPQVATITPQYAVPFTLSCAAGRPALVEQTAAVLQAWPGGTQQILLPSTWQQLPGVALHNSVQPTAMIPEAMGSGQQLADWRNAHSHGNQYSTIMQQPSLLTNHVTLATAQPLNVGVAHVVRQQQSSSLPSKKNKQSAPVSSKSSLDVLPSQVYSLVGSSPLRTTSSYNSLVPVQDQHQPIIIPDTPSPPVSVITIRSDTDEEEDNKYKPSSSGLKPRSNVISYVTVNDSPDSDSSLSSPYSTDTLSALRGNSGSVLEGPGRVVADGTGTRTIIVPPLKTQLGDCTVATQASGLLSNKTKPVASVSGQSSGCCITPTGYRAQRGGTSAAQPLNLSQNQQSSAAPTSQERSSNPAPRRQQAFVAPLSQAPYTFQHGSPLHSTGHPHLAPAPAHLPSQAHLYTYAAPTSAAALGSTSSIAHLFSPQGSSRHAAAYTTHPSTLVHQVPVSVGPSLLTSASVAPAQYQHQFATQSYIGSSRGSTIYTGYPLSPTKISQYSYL

SMILES: C=CC(=O)N1CCCC(c2c(F)cc(C(N)=O)c3[nH]c4c(c23)CCCCC4)C1 (single isomer, unassigned) [Compound 5-6]
- inhibition at 1 µM [1]: 16.4%
- inhibition at 1 µM [2]: -7%
- inhibition at 1 µM [3]: -5.3%
- inhibition at 1 µM [4]: 6.6%
- inhibition at 1 µM [5]: -7.2%
- inhibition at 1 µM [6]: -22.1%
- inhibition at 1 µM [7]: -3.4%
- inhibition at 1 µM [8]: 6.7%
- inhibition at 1 µM [9]: -18.6%
- inhibition at 1 µM [10]: 11.4%
- inhibition at 1 µM [11]: -6.3%
- inhibition at 1 µM [12]: -10%

SMILES: C=CC(=O)N1CCC[C@@H](c2c(F)cc(C(N)=O)c3[nH]c4c(c23)CC2(CC4)CC2)C1 [Compound 6-2, (S)-5-(1-acryloylpiperidin-3-yl)-6-fluoro-1,2,4,9-tetrahydrospiro[carbazole-3,1′-cyclopropane]-8-carboxamide]
- inhibition at 1 µM [1]: -46.1%
- inhibition at 1 µM [2]: -3.6%
- inhibition at 1 µM [3]: -6.5%
- inhibition at 1 µM [4]: 41.1%
- inhibition at 1 µM [5]: -14.7%
- inhibition at 1 µM [6]: 22.7%
- inhibition at 1 µM [7]: 15.3%
- inhibition at 1 µM [8]: -49.1%
- inhibition at 1 µM [9]: -55.4%
- inhibition at 1 µM [10]: 12.2%
- inhibition at 1 µM [11]: -4.3%
- inhibition at 1 µM [12]: -35.5%

SMILES: C=CC(=O)N1CCC[C@@H](c2c(F)cc(C(N)=O)c3[nH]c4c(c23)CCC4)C1 [Compound 10-2, (S)-8-(1-acryloylpiperidin-3-yl)-7-fluoro-1,2,3,4-tetrahydrocyclo-penta[b]indole-5-carboxamide]
- inhibition at 1 µM [1]: -1.4%
- inhibition at 1 µM [2]: 19.9%
- inhibition at 1 µM [3]: -11.1%
- inhibition at 1 µM [4]: 33.6%
- inhibition at 1 µM [5]: -10.7%
- inhibition at 1 µM [6]: 5.5%
- inhibition at 1 µM [7]: -2%
- inhibition at 1 µM [8]: -29.2%
- inhibition at 1 µM [9]: -66.1%
- inhibition at 1 µM [10]: 1%
- inhibition at 1 µM [11]: 13.8%
- inhibition at 1 µM [12]: -32%
